Laboratory results published in US9408856B2, “Topical steroidal formulations” (Temple University—Of The Commonwealth System of Higher …, priority 2008, dated 2016).
≈ marks a conversion by molar mass, not a printed value.

Tests used:
[1] = PK study in human volunteers (phase I); format: in vivo; conditions: 12 human volunteers; calculated for 1200 mg oral dose from AUC0-24/mg at 800 mg or 1600 mg daily
Protocol: (§1) An oral single dose PK experiment in mice following administration of 200 mg/kg fluasterone was performed. The calculated AUC0-24 was 2,242 (ngXh/mL). A PK study was also performed in 12 human volunteers as part of a phase I fluasterone study. The volunteers received either 800 mg or 1600 mg fluasterone orally as a daily dose. The AUC0-24/mg dose was calculated.

[2] = tested on: TPA-promoted skin tumor promotion; conditions: Schwartz et al. Carcinogenesis 10:1809-1813, 1989; cited from earlier work
[3] = Solubility of fluasterone in solvents and mixed solvents; format: physicochemical; conditions: thermodynamic from solid
Protocol: Fluasterone: The solubility of fluasterone in various solvents was determined by adding a specific volume of solvent to a weighed amount of fluasterone in a screw-capped glass vial and shaking vigorously for several minutes. Incremental volumes of solvent were added, followed by vigorous shaking, until the fluasterone completely dissolved.
Alternatively solubility was determined by adding a specific volume of solvent to a weighed amount of fluasterone in a screw-capped glass vial and warming the vial on a hot plate with vigorous shaking until the fluasterone dissolved. Fluasterone was considered soluble if it remained in solution after at least a month at room temperature. Although the above procedures may not give precise solubilities, they should give a close approximation of maximum fluasterone solubility.
In these experiments fluasterone solubility was determined by adding fluasterone to a measured volume of solvent in a screw-capped glass vial. The vial was warned on a hot plate with vigorous shaking until the fluasterone dissolved. Fluasterone was considered soluble if it remained in solution after at least a month at room temperature.

[4] = tested on: fasting plasma triglyceride levels; experiment: Phase I/II trial in hypertriglyceridemic patients; format: in vivo, human; conditions: about 1200 mg oral
Protocol: The lowest effective oral dose of fluasterone which lowers fasting plasma triglycerides in diabetic mice is about 200 mg/kg, which translates into an oral human dose of about 1200 mg.

[5] = Oral single dose PK experiment in mice; format: in vivo; conditions: 200 mg/kg oral single dose
Protocol: as §1

## C[C@]12CCCCC1=CC[C@@H]1[C@@H]2CC[C@]2(C)C(=O)[C@H](F)C[C@@H]12 [Fluasterone, 16α-fluoro-5-androsten-17-one]
[1]
  AUC0-24: 2,316 ngXh/mL
[2]
  lowest reported oral dose which inhibits TPA-promoted skin tumor promotion: 200 mg/kg
[3]; 10% Tween 80-90% ethanol (v/v), organic solvent or mixture, room temperature
  solubility: < 10000 µg/mL
[3]; 15% Tween 80-85% ethanol (v/v), organic solvent or mixture, room temperature
  solubility: < 10000 µg/mL
[3]; 20% Tween 80-80% ethanol (v/v), organic solvent or mixture, room temperature
  solubility: > 10000 µg/mL
[3]; 50% Tween 80-50% ethanol (v/v), organic solvent or mixture, room temperature
  solubility: > 14000 µg/mL
[3]; cetyl alcohol:ethanol (10%:90%, w/w), organic solvent or mixture, cetyl alcohol:ethanol (10%:90%, w/w), room temperature
  solubility: < 10000 µg/mL
[3]; cetyl alcohol:ethanol (20%:80%, w/w), organic solvent or mixture, cetyl alcohol:ethanol (20%:80%, w/w), room temperature
  solubility: < 12000 µg/mL
[3]; cetyl alcohol:ethanol mixtures (20-22% cetyl alcohol), organic solvent or mixture, cetyl alcohol:ethanol mixtures (20-22% cetyl alcohol), summary, room temperature
  solubility: > 10000 µg/mL
[3]; dimethyl sulfoxide (DMSO), organic solvent or mixture
  solubility: 3600 µg/mL (≈ 12.4 mM)
[3]; ethanol, organic solvent or mixture
  solubility: 6600 µg/mL (≈ 22.7 mM)
[3]; isopropyl myristate, oil or lipid
  solubility: 16000 µg/mL (≈ 55.1 mM)
[3]; limonene, organic solvent or mixture
  solubility: 22600 µg/mL (≈ 77.8 mM)
[3]; polyethylene glycol 400 (PEG-400), organic solvent or mixture
  solubility: 1100 µg/mL (≈ 3.79 mM)
[3]; propylene glycol, organic solvent or mixture
  solubility: > 500 µg/mL
[4]
  effect on fasting plasma triglyceride levels: significantly lowered
[5]
  AUC0-24: 2,242 ngXh/mL
